Measurements published in PMC7200681, “The calcitonin-like system is an ancient regulatory system of biomineralization” (Scientific Reports, 2020).

Experiments:
[1] = test system: mussel mantle edge; assay: Ex-vivo incubation of mantle edge fragments, calcium quantification by MP-AES; design: species or system Mytilus galloprovincialis; settings: Verapamil 200 µM, 4 hours; data not shown
Protocol: Figure 7 Effect of the mussel calcitonin-like peptide on (A) calcium (ppm) concentration in the mantle edge and (B) calcium uptake by mantle cells of the Mediterranean mussel. (A) The quantity of calcium (ppm) present in the mantle edge after mussel CALCIIa peptide incubation was measured using a Microwave Plasma-Atomic Emission Spectrometer (MP-AES, Agilent) at 393.366 nm. A standard curve for calcium was performed before analysing the samples. In vitro mantle assays with CALCIIa peptide and with ouabain and control (culture medium and mantle) were repeated on at least 3 independent occasions. For each assay at least ten replicates were performed and the mantle edge distal to the umbo was used (one mantle fragment per replica). Prism GraphPad v5 software was used to assess the significance of differences between the groups using a One-way Anova and Tukey’s multiple comparison test. […] C - control (no peptide or ouabain); P - peptide (10 μM); O - ouabain (2 mM), OP - ouabain (2 mM) and peptide (10 μM); PreOP - pre -stimulation for 1 hour with the peptide followed by 4 hours incubation with OP. (B) Digital photographs of the mussel mantle cells in the presence (CALCIIa, 10 μM) or absence (control) of the mussel CALCIIa peptide. Calcium ions were stained with 50 mM of Calcein (green) and cell nuclei (blue) with DAPI (Acros Organics). An increase in cellular fluorescence represents an increase in calcium uptake. Fluorescence of the CALCIIa peptide stimulated cells was 1.9 times higher than the control. The average mantle cell size was 3–4 μm and fluorescent images were taken using a Leica DM IL microscope coupled to a Visicam HDMI 6 digital camera and photographs were analysed using ImageJ software (v. 1.52a) to calculate the fluorescence intensity and for image overlay. The scale bar is indicated.
The posterior mantle edge region of the Mediterranean mussel was collected and washed in culture medium. The composition of the culture medium was as described in[91] […]

[2] = test system: mussel CALCR-like (CALCRIa, CALCRIc, CALCRIIa, CALCRIIb and CALCRIIc); assay: cAMP assay in HEK 293 cells stably expressing the mussel receptors; assay type: cell-based; settings: 10 µM peptide, 30 min at 37 °C, 1 mM IBMX; % of Forskolin (10uM) response; single experiment in triplicate (Supplementary Figure 7A)
Protocol: Mammalian cell cultures and transfections followed the methodology described by[89],[90]. Mammalian HEK293 cells (ECACC, UK) were used and they were maintained in complete Dulbecco’s modified Eagle’s medium (DMEM, 4.5 g/l glucose, 110 mg/l sodium pyruvate and L-glutamine, SIGMA-ALDRICH, Spain) supplemented with 10% sterile foetal bovine serum (FBS), 0.1% penicillin: streptomycin antibiotic mix (10,000 U:10 mg/ml, Sigma) and 250 μg /ml sterile filtered 1:100 amphotericin B solution (SIGMA-ALDRICH) in a humid 5% CO2 incubator (HERAEUS, Portugal) at 37 °C. […] Cell recovery was monitored daily and the medium was changed every two days until no cell death was observed. […]
(§1) HEK293 cells stably expressing five mussel receptors (CALCRIa, CALCRIc, CALCRIIa, CALCRIIb and CALCRIIc) were stimulated with the two mussel peptides and the vertebrate (human and salmon) calcitonins. Receptor activation was assessed in vitro by measuring two intracellular signalling pathways: a) production of cAMP and b) mobilization of calcium (Ca^2+). The cellular response was initially assessed using 10 μM of each peptide. […]
The amount of cAMP produced was determined using a competitive immunoassay with a cryptate labelled anti-cAMP antibody (CISBIO, France) and followed the methodology describe by[89],[90]. […]

[3] = test system: mussel CALCRIIa; assay: Calcium mobilization assay (apoaequorin bioluminescence), dose-response, HEK 293 cells expressing mussel CALCRIIa; assay type: cell-based, Mytilus galloprovincialis; settings: for EC50: HEK 293 cells stably expressing receptor, co-transfected with apoaequorin, peptide 1 μM to 0.01 nM, three independent assays in duplicate, read-out: EC50, activation of mussel CALCRIIa (intracellular calcium mobilization); for Activation of mussel CALCRIIa in dose-response analysis (in words): calcium mobilization, HEK 293/apoaequorin, 1 μM to 0.01 nM
Description: (§2) The complete sequence of the Mediterranean mussel CALCRIa was amplified using specific primers (Table 1) from cDNA of a tissue mixture (mantle, adductor muscle, gills, gonads) using a proofreading DNA polymerase (iProof BIORAD, Portugal) and cloned into the pGEMT-easy vector (PROMEGA, Spain). The Mediterranean mussel CALCRIIa transcript that was found in the mantle transcriptome was incomplete and lacked the N-terminus (by comparisons with the hard-shelled mussel homologue) and so the remaining sequence (from 1–393 bp) was deduced from the hard-shelled mussel homologue receptor and the receptor was synthesised and supplied by GENESCRIPT (USA). The complete transcripts for mussel CALCRIc, CALCRIIb and CALCRIIc were only found in the hard-shelled mussel mantle transcriptome and homologues were only found in the Mediterranean mussel genome as they were absent from the species mantle transcriptome and so they were also synthesised and supplied by GENESCRIPT (USA) using the hard-shelled mussel receptor sequences as template. The mussel CALCRIb transcript was incomplete and lacked both N and C-terminal regions and it was not possible to obtain the complete transcript either by searching both mussels mantle transcriptomes or the Mediterranean mussel genome and so it was not produced. All synthetized receptors were provided in the pUC57 cloning vector by the company and receptor codon usage was optimized to favour a high level of expression in mammalian cells.
(§3) Mammalian cell cultures and transfections followed the methodology described by[89],[90]. Mammalian HEK293 cells (ECACC, UK) were used and they were maintained in complete Dulbecco’s modified Eagle’s medium (DMEM, 4.5 g/l glucose, 110 mg/l sodium pyruvate and L-glutamine, SIGMA-ALDRICH, Spain) supplemented with 10% sterile foetal bovine serum (FBS), 0.1% penicillin: streptomycin antibiotic mix (10,000 U:10 mg/ml, Sigma) and 250 μg /ml sterile filtered 1:100 amphotericin B solution (SIGMA-ALDRICH) in a humid 5% CO2 incubator (HERAEUS, Portugal) at 37 °C. On the day prior to transfection, 2–3 × 10^5 HEK293 cells were seeded on 6 well plates (SARSTEDT, Portugal) and transfected with Fugene HD transfection reagent (2 DNA: 4 Fugene ratio, PROMEGA) following the manufacturer’s protocol. Seventy-two hours after transfection, 800 μg/ml of the antibiotic Geneticin (SIGMA-ALDRICH) was added to the medium to select and isolate stable receptor cell lines. Cell recovery was monitored daily and the medium was changed every two days until no cell death was observed. […]
as §1
(§4) Stable cell lines expressing the mussel receptors were transiently co-transfected with the mitochondrial targeted apo-aequorin protein cloned in pcDNA3.1. Two days after transfection cells were washed, counted and resuspended in 1 ml of DMEM /F12 Ham (without phenol red)/0.1% BSA supplemented with 2 µM coelenterazine (SIGMA-ALDRICH). […] The injector system of the Biotek Synergy 4 microplate reader (USA) was used to inject 50 µl of the cell suspensions into wells containing 50 μl of the diluted peptide in DMEM / F12 Ham / 0.1% BSA. […]

[4] = test system: mussel CALCRIIc; assay: Calcium mobilization assay (apoaequorin bioluminescence), dose-response, HEK 293 cells expressing mussel CALCRIIc; assay type: cell-based, Mytilus coruscus; settings: HEK 293/apoaequorin, 1 μM to 0.01 nM
Description: as §2, with “The mussel CALCRIb transcript was incomplete and lacked both N and C-terminal regions and it was not possible to obtain the complete transcript either by searching both mussels mantle transcriptomes or the Mediterranean mussel genome and so it was not produced. All synthetized receptors were provided in the pUC57 cloning vector by the company and receptor codon usage was optimized to favour a high level of expression in mammalian cells.” left out
Mammalian cell cultures and transfections followed the methodology described by[89],[90]. […] Cell recovery was monitored daily and the medium was changed every two days until no cell death was observed. […]
as §1
Stable cell lines expressing the mussel receptors were transiently co-transfected with the mitochondrial targeted apo-aequorin protein cloned in pcDNA3.1. Two days after transfection cells were washed, counted and resuspended in 1 ml of DMEM /F12 Ham (without phenol red)/0.1% BSA supplemented with 2 µM coelenterazine (SIGMA-ALDRICH). […]

[5] = test system: mussel CALCRIa; assay: Calcium mobilization assay (apoaequorin bioluminescence), dose-response, HEK 293 cells expressing mussel CALCRIa; assay type: cell-based, Mytilus galloprovincialis; settings: for EC50: HEK 293 cells stably expressing receptor, co-transfected with apoaequorin, peptide 1 μM to 0.01 nM, three independent assays in duplicate, read-out: EC50, activation of mussel CALCRIa (intracellular calcium mobilization); for Activation of mussel CALCRIa in dose-response analysis (in words): calcium mobilization, HEK 293/apoaequorin, 1 μM to 0.01 nM
Description: as §2, §3, §1, §4

SMILES | Calcium concentration of mantle fragments relative to the control (in words) [1] | Stimulation of all mussel receptors via the cAMP pathway (in words) [2] | EC50 [3] | Activation of mussel CALCRIIa in dose-response analysis (in words) [3] | Activation of mussel CALCRIIc in dose-response analysis (in words) [4] | EC50 [5] | Activation of mussel CALCRIa in dose-response analysis (in words) [5]
COc1ccc(CCN(C)CCCC(C#N)(c2ccc(OC)c(OC)c2)C(C)C)cc1OC (stereo not shown) [Verapamil] | did not change | – | – | – | – | – | –
CC[C@H](C)[C@H](NC(=O)[C@H](C)NC(=O)[C@@H](NC(=O)[C@H](CCC(N)=O)NC(=O)[C@@H]1CCCN1C(=O)[C@H](Cc1ccccc1)NC(=O)[C@@H](NC(=O)[C@H](Cc1c[nH]cn1)NC(=O)[C@H](Cc1ccccc1)NC(=O)[C@H](CCCCN)NC(=O)[C@H](CC(N)=O)NC(=O)[C@H](Cc1ccccc1)NC(=O)[C@H](CC(=O)O)NC(=O)[C@H](CCC(N)=O)NC(=O)[C@@H](NC(=O)[C@H](Cc1ccc(O)cc1)NC(=O)[C@@H](NC(=O)CNC(=O)[C@H](CC(C)C)NC(=O)[C@H](CCSC)NC(=O)[C@@H]1CSSC[C@H](N)C(=O)NCC(=O)N[C@@H](CC(N)=O)C(=O)N[C@@H](CC(C)C)C(=O)N[C@@H](CO)C(=O)N[C@@H]([C@@H](C)O)C(=O)N1)[C@@H](C)O)[C@@H](C)O)[C@@H](C)O)[C@@H](C)O)C(=O)NCC(=O)N[C@H](C(=O)NCC(=O)N[C@@H](C)C(=O)N1CCC[C@H]1C(N)=O)C(C)C [human calcitonin, calcitonin] | – | stimulated | 500 nM | activated | but not CALCRIIc | 9.5 nM | activated
CC(C)C[C@H](NC(=O)[C@H](CCCCN)NC(=O)CNC(=O)[C@H](CC(C)C)NC(=O)[C@@H](NC(=O)[C@@H]1CSSC[C@H](N)C(=O)N[C@@H](CO)C(=O)N[C@@H](CC(N)=O)C(=O)N[C@@H](CC(C)C)C(=O)N[C@@H](CO)C(=O)N[C@@H]([C@@H](C)O)C(=O)N1)C(C)C)C(=O)N[C@@H](CO)C(=O)N[C@@H](CCC(N)=O)C(=O)N[C@@H](CCC(=O)O)C(=O)N[C@@H](CC(C)C)C(=O)N[C@@H](Cc1c[nH]cn1)C(=O)N[C@@H](CCCCN)C(=O)N[C@@H](CC(C)C)C(=O)N[C@@H](CCC(N)=O)C(=O)N[C@H](C(=O)N[C@@H](Cc1ccc(O)cc1)C(=O)N1CCC[C@H]1C(=O)N[C@@H](CCCNC(=N)N)C(=O)N[C@H](C(=O)N[C@@H](CC(N)=O)C(=O)N[C@H](C(=O)NCC(=O)N[C@@H](CO)C(=O)NCC(=O)N[C@H](C(=O)N1CCC[C@H]1C(N)=O)[C@@H](C)O)[C@@H](C)O)[C@@H](C)O)[C@@H](C)O [salmon calcitonin, calcitonin] | – | stimulated | 14 nM | activated | but not CALCRIIc | 5 nM | activated
